According to patent publication US20190241569A1, “3-(ARYL OR HETEROARYL) METHYLENEINDOLIN-2-ONE DERIVATIVES AS INHIBITORS OF CANCER STEM CELL PATHWAY KINASES FOR THE TREATMENT OF CANCER” (Boston Biomedical, Inc., priority 2013, published 2019):

Tested on: FaDu
Assay: Bulk cancer cells, Cell Titer-Glo 72 hours (Test Example 2)
Format: cell-based
Details: Homo sapiens
Description: Tubes of 3× drug (60 uM in 500 uL complete media) were prepared from 5 mM stock solutions in DMSO. […] To treat cells, 50 uL of drug from the dilution plate was removed and added to the cell plates. […] Cells were harvested 72 hours after drug addition using Cell Titer-Glo (Promega) and luminescence measured on a plate reader.

SMILES	IC50 [µM]
CCN(CC)CCNC(=O)c1c(C)[nH]c(/C=C2\C(=O)Nc3ccc(-c4cnc(-c5ccccc5)s4)cc32)c1C [Example 54]	23.7
Cc1ccc(-c2nc(-c3ccc4c(c3)/C(=C/c3[nH]c(C)c(C(=O)N5CCOCC5)c3C)C(=O)N4)cs2)cc1 [Example 105]	3.05
Cc1[nH]c(/C=C2\C(=O)Nc3ncc(-c4csc(-c5ccccc5)n4)cc32)c(C)c1C(=O)N1CCN(C)CC1 [Example 117]	39.2
CCN(CC)CCNC(=O)c1c(C)[nH]c(/C=C2\C(=O)Nc3ccc(C4CCN(C5CCOCC5)CC4)cc32)c1C [Example 12]	23.9
CCN(CC)CCNC(=O)c1c(C)[nH]c(/C=C2\C(=O)Nc3ccc(-c4csc(-c5ccccn5)n4)cc32)c1C [Example 124]	46.9

Results, then the molecule that gave them:

IC50 [µM]	SMILES
14	Cc1cc(C)c(/C=C2\C(=O)Nc3cc(-c4ccc5ccccc5n4)ccc32)[nH]1 [Example 248]
33.2	COc1cccnc1-c1ccc2c(c1)/C(=C/c1[nH]c(C)cc1C)C(=O)N2 [Example 222]
49.3	O=C1Nc2ccc(-c3csc(-c4ccccc4)n3)cc2/C1=C/c1cc2ccccc2[nH]1 [Example 159]
17.5	O=C1Nc2ccc(-c3csc(-c4ccncc4)n3)cc2/C1=C/c1ccc(N2CCOCC2)cc1 [Example 173]
23.9	CCN(CC)CCNC(=O)c1c(C)[nH]c(/C=C2\C(=O)Nc3cc(-c4ccc5cn[nH]c(=O)c5c4)ccc32)c1C [Example 252]
35.5	O=C1Nc2ccc(-c3csc(-c4ccccc4)n3)cc2/C1=C/c1ccc(N2CCOCC2)cc1 [Example 172]

Tested on: FaDu CSC
Assay: Cancer stem cells, Cell Titer-Glo 72 hours (Test Example 3)
Format: cell-based
Details: Homo sapiens, FaDu, 72 h

SMILES	IC50 [µM]
CCOC(=O)c1c(C)[nH]c(/C=C2\C(=O)Nc3ccc(-c4csc(-c5ccccc5)n4)cc32)c1C [Example 108]	20.2
CCN(CC)CCNC(=O)c1c(C)[nH]c(/C=C2\C(=O)Nc3ccc(-c4oc(-c5ccccc5)nc4C)cc32)c1C [Example 34]	18.2
Cc1[nH]c(/C=C2\C(=O)Nc3ccc(-c4cnn(-c5ccccn5)c4)cc32)c(C)c1C(=O)N1CCOCC1 [Example 30]	8.94
Cc1[nH]c(/C=C2\C(=O)Nc3ccc(-c4ncc(-c5ccccc5)o4)cc32)c(C)c1C(=O)N1CCN(C)CC1 [Example 20]	2.38
Cc1[nH]c(/C=C2\C(=O)Nc3ccc(-c4cnn(-c5ccccc5)c4C)cc32)c(C)c1C(=O)N1CCN(C)CC1 [Example 5]	14.8
O=C1Nc2ccc(-c3csc(-c4ccccc4)n3)cc2/C1=C/c1ccc(C(=O)NCCN2CCOCC2)c(=O)[nH]1 [Example 123]	33.7
Cc1[nH]c(/C=C2\C(=O)Nc3ccc(-c4ccnn4-c4ccc(C#N)cc4)cc32)c(C)c1C(=O)N1CCN(C)CC1 [Example 24]	48.2
CCN(CC)CCNC(=O)c1c(C)[nH]c(/C=C2\C(=O)Nc3ncc(-c4csc(-c5ccccc5)n4)cc32)c1C [Example 116]	1.6
CN1CCN(C(=O)c2ccc(/C=C3\C(=O)Nc4ccc(-c5csc(-c6ccccc6)n5)cc43)[nH]c2=O)CC1 [Example 122]	23.2
CCOC(=O)CCc1cccc(-c2nc(-c3ccc4c(c3)/C(=C/c3[nH]c(C)c(C(=O)NCCN(CC)CC)c3C)C(=O)N4)cs2)c1 [Example 134]	2.34

Results, then the molecule that gave them:

IC50 [µM]	SMILES
39.1	Cc1cc(C)c(/C=C2\C(=O)Nc3cc(-c4cccc(C#N)c4C)ccc32)[nH]1 [Example 245]
14.9	Cc1cc(C)c(/C=C2\C(=O)Nc3cc(-c4cnc5ccnn5c4)ccc32)[nH]1 [Example 243]
5.62	Cc1[nH]c(/C=C2\C(=O)Nc3ccc(-c4csc(C5CCNCC5)n4)cc32)c(C)c1C(=O)O [Example 142]
2.52	CCOC(=O)CCc1ccc(-c2nc(-c3ccc4c(c3)/C(=C/c3[nH]c(C)c(C(=O)NCCN(CC)CC)c3C)C(=O)N4)cs2)cc1 [Example 136]
3.07	O=C1Nc2ccc(-c3csc(-c4ccncc4)n3)cc2/C1=C/c1cc2ccccc2[nH]1 [Example 158]
18.2	Cc1cc(C)c(/C=C2\C(=O)Nc3cc(-c4ccc(-c5ccccc5)nc4)ccc32)[nH]1 [Example 241]
